Test results taken from US20170000908A1, “A MICELLAR PARTICLE” (AGENCY FOR SCIENCE, TECHNOLOGY AND RESEARCH, priority 2013, published 2017).

Tests used:
[1] = Quantum yield measured against fluorescence standard solutions; format: physicochemical; conditions: dye in THF
Protocol: Quantum yield was measured with respect to the fluorescence standard solution, namely fluorescein (Ethanol; QY=0.79), and rhodamine B (Ethanol; QY=0.49). Fluorescein was used as a reference for Coumarin545T@SiO2, whereas rhodamine B was used for DCJTB@SiO2. The procedures involved diluting the fluorescent silica nanocapsules and the fluorescence standard solution with their respective solvent to have the same absorbance at excitation wavelength (460 nm for fluorescein; 490 nm for rhodamine B). Quantum yields for fluorescent silica nanocapsules were measured by dividing, the integrated emission area of their fluorescent spectrum against that of fluorecein or rhodamine B in Ethanol. […] In addition, the lifetime of Coumarin545T@SiO2 was determined to be 3.38 ns, while the lifetime of coumarin545T in THF was determined to be 2.86 ns. Similarly, the lifetime of DCJTB@SiO2 was determined to be 3.40 ns, while the lifetime of DCJTB in THF was determined to be 2.50 ns.

[2] = Photoluminescence lifetime by Time Correlated Single Photon Counting (TCSPC); format: physicochemical; conditions: dye in THF; excited at 405 nm
Protocol: The photoluminescence lifetimes of the Coumarin545T@SiO2 and DCJTB@SiO2 samples were measured using a Time Correlated Single Photon Counting (TCSPC) module (PicoQuant PicoHarp 300 of PicoQuant of Berlin, Germany). The Coumarin545T@SiO2 and DCJTB@SiO2 samples were excited by using 405 nm line of a picosecond pulsed laser diode (PicoQuant PDL 800-B). The photoluminescence was dispersed through a monochromator (Acton SpectroPro 2300i) and detected with a micro channel plate photomultiplier tube (MCP-PMT) detector (Hamamatsu R3809U-50).
FIG. 4 is a graph showing the time-resolved photoluminescence decay of Coumarin545T dissolved in THF and that when encapsulated inside the core of the nanocapsules. FIG. 5 is a graph showing the time-resolved photoluminescence decay of DCJTB dissolved in THF and that when encapsulated inside the core of the nanocapsules. […] Based on these figures, when compared to the photoluminescence behavior of the dye solutions (Coumarin545T or DCJTB) in their respective solvents, there is a significant red-shift in the emission peak for both of the silica nanocapsules, which should be ascribed to the π-π stacking of the dye molecules by encapsulation. The emission spectra of the nanocapsules are also broader than the dye solutions in their respective solvents. […]

[3] = UV-Vis and photoluminescent spectra (emission peak, fwhm); format: physicochemical; conditions: dye in THF
Excerpt: The UV-Vis and photoluminescent spectra of Coumarin545T@SiO2 are shown in FIG. 2 while those of DCJTB@SiO2 are shown in FIG. 3.
FIG. 4 is a graph showing the time-resolved photoluminescence decay of Coumarin545T dissolved in THF and that when encapsulated inside the core of the nanocapsules. FIG. 5 is a graph showing the time-resolved photoluminescence decay of DCJTB dissolved in THF and that when encapsulated inside the core of the nanocapsules. […] Based on these figures, when compared to the photoluminescence behavior of the dye solutions (Coumarin545T or DCJTB) in their respective solvents, there is a significant red-shift in the emission peak for both of the silica nanocapsules, which should be ascribed to the π-π stacking of the dye molecules by encapsulation. The emission spectra of the nanocapsules are also broader than the dye solutions in their respective solvents. The silica coating could lead to improvement in the photostability of the dye molecules by limiting their contact with the outside environment, especially soluble oxygen molecules.

[4] = Ethanol; cited from earlier work

Quantum Yield (QY) [1] | Fluorescence Lifetime (τ) [2] | fwhm [3] | λem [3] | SMILES | Quantum yield (QY) of fluorescence standard solution [4]
0.99 | 2.50 ns | 73 nm | 605 nm | CC(C)(C)C1=CC(=C(C#N)C#N)C=C(/C=C/c2cc3c4c(c2)C(C)(C)CCN4CCC3(C)C)O1 [DCJTB] | 
 |  |  |  | CCN(CC)c1ccc2c(-c3ccccc3C(=O)O)c3ccc(=[N+](CC)CC)cc-3oc2c1.[Cl-] [rhodamine B] | 0.49
0.99 | 2.86 ns | 35 nm | 504 nm | CC1(C)CCN2CCC(C)(C)c3c2c1cc1cc(-c2nc4ccccc4s2)c(=O)oc31 [Coumarin 545T] | 
